Measured values taken from PubChem BioAssay AID179 (DTP/NCI, 2004).
The source made the active and inactive calls.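 Rule for the calls: active = compounds giving half or more protection of infected cells from virus-caused growth loss, again on retest; inactive = the rest.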 Where a SMILES comes first, the peptide text is derived from it. The star is where a group is joined. OSu = O=C1CCC(=O)N1O*; Bn = c1ccc(C*)cc1

Test system: CEM cells HIV-1 protection, formazan growth assay
Assay: NCI AIDS Antiviral Assay
Conditions: for IC50: measured here: growth of uninfected CEM cells
In short: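 Protection of CEM cells against HIV-1 was scored from cell growth (soluble formazan) across five concentrations, with parallel uninfected cells. Lack of protection may reflect toxicity.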

Work on `S=c1sc2ccccc2n1CN1CCN(Cc2ccccc2)CC1` yielded an EC50 greater than 200 µM and an IC50 greater than 200 µM.

Compound `COc1ccc(/C=C/c2ccc3ccccc3n2)c(OC)c1` has an EC50 greater than 200 µM and an IC50 of 12.3 µM.

In the case of `CC#CCOC(=O)c1ccccc1OC(C)=O.[C-]#[O+].[C-]#[O+].[C-]#[O+].[C-]#[O+].[C-]#[O+].[C-]#[O+].[Co].[Co]`, the EC50 is reported as greater than 200 µM and the IC50 is reported as 7.76 µM.

For `O=C1N/C(=N\N=C\c2ccccc2)C(c2ccccc2)O1` (stereo not drawn), the EC50 was greater than 200 µM and the IC50 was 33.9 µM.

Work on `CCOc1ccc(N=NC2C(=O)N(C(=O)CC(=O)Nc3ccc(C)cc3)N=C2C)cc1` (stereo not drawn) yielded an EC50 greater than 200 µM and an IC50 of 10.5 µM.

With `CC(=O)OCC(=O)[C@@]1(O)CC[C@H]2[C@@H]3CCC4=CC(=O)C[C@H](SC(C)=O)[C@]4(C)[C@H]3CC[C@@]21C` the EC50 was greater than 200 µM and the IC50 was 117 µM.

`C/C(C=C(C#N)C#N)=C\c1ccc([N+](=O)[O-])cc1` was tested, and the EC50 was greater than 11.5 µM and the IC50 was greater than 11.5 µM.

`CCOC(=O)Oc1cc2ccsc2c2c1c1ccccc1n2C(=O)OCC` gave an EC50 greater than 200 µM and an IC50 of 35.5 µM.

`CCCCCN(CCCCC)CC(=O)OCC1(C)CCCC2(C)C3CCC(C(C)C)=CC3=CCC12` (stereo not drawn) was tested, and the EC50 was greater than 200 µM and the IC50 was 35.5 µM.

`CN1CC[C@]2(C)c3ccc(O)cc3CC3CCCC1C32C` (stereo partly drawn) was tested, and the outcome was “inactive”.

`COc1cc2c(cc1OC)-c1nc(N)sc1CC2` showed an EC50 greater than 38 µM and an IC50 greater than 38 µM.

Compound `COn1oc(=O)c2ccccc21` has an EC50 greater than 200 µM and an IC50 greater than 200 µM.

`O=c1nc2ccc3[nH]c(O)c4ccc1c2c34` was tested, and the EC50 was greater than 200 µM and the IC50 was 178 µM.

`O=C([O-])[C+](C=Cc1cccc2ccccc12)C(=O)O` gave an EC50 greater than 708 µM and an IC50 of 257 µM.

`C/C(=N\NC(N)=S)c1cn(C2OC(CO)C(O)C2O)c(=O)[nH]c1=O` (stereo not drawn) was tested, and the outcome was “inactive”.

In the case of `CSC1=NN(C(C)=O)C(C(OC(C)=O)C(OC(C)=O)C(OC(C)=O)C(COC(C)=O)OC(C)=O)S1` (stereo not drawn), the outcome is reported as “inactive”.

With `CCOC(=O)Nc1cc2c(c(N)n1)N=C(c1ccc3ccccc3c1)CN2` the EC50 was greater than 200 µM and the IC50 was 0.309 µM.

Work on `O=C(Nc1ccccc1S)OCc1ccccc1` yielded an EC50 of 34.7 µM and an IC50 of 46.8 µM.

For `COC(=O)C(CSSCC(C(=O)NC(Cc1ccccc1)C(=O)NCC(=O)OC(C)(C)C)N1C(=O)CCC1=O)NC(=O)OCc1ccccc1` (stereo not drawn), the EC50 was greater than 200 µM and the IC50 was 20.4 µM.

`CCCC1OC(=O)c2ccccc2S1` (stereo not drawn) was tested, and the EC50 was greater than 200 µM and the IC50 was greater than 200 µM.

Work on `Clc1ccc(-c2nnc(-c3nsc4ccccc34)o2)cc1` yielded an EC50 greater than 12 µM and an IC50 greater than 12 µM.

With `O=C1OCC23CCC4C1C42CC1(CC3)OCCO1` (stereo not drawn) the EC50 was greater than 200 µM and the IC50 was greater than 200 µM.

For `COc1nc(NC2OC(CO)C(O)C2O)cc(=O)n1C` (stereo not drawn), the outcome was “inactive”.

Work on `CC1C(c2ccc(N(C)C)cc2)c2cc3c(cc2OC1N1CCCC1)OCO3` (stereo not drawn) yielded an EC50 greater than 100 µM and an IC50 of 17 µM.

With `CCOC(=O)c1cc(C2CCN(Cc3ccccc3)C2=O)c(C(=O)C(=[N+]=[N-])C(C)=O)[nH]1` (stereo not drawn) the EC50 was greater than 200 µM and the IC50 was greater than 200 µM.

Compound `O=S1(=O)C[C@H](NCc2ccccc2)[C@H](NCc2ccccc2)C1` has an EC50 greater than 200 µM and an IC50 of 107 µM.

With `NC(Cc1ccc(OCc2ccccc2)cc1)C(=O)NC(Cc1ccccc1)C(=O)ON1C(=O)CCC1=O` (stereo not drawn) (H-Tyr(Bn)-Phe-OSu; configuration not given here) the outcome was “inactive”.

Work on `Cc1ccc(Nc2nc3ccccc3nc2NS(=O)(=O)c2ccc(N)cc2)cc1` yielded an EC50 greater than 200 µM and an IC50 of 43.7 µM.

With `C=C1CC23CC4C5C6(C)CC(O)CC57C(C2C(O)C1C(O)C37)N4C6` (stereo not drawn) the outcome was “inactive”.

With `CCCCC(C(=O)C(=O)Nc1ccc(C)cc1C)C(=O)C(C)C` (stereo not drawn) the EC50 was greater than 794 µM and the IC50 was greater than 794 µM.

`CCOC1Oc2ccccc2-c2nc(C)c(C#N)cc21` (stereo not drawn) showed an EC50 greater than 83.2 µM and an IC50 greater than 83.2 µM.

`CC(=O)[C@@H]1[C@@H](OC(=O)CCC(C)COC2OC(CO)C(O)C(O)C2O)C[C@H]2[C@@H]3CC=C4C[C@@H](OC5OC(CO)C(OC6OC(C)C(O)C(O)C6O)C(O)C5OC5OC(C)C(O)C(O)C5O)CC[C@]4(C)[C@H]3CC[C@]12C` (stereo partly drawn) gave an EC50 greater than 200 µM and an IC50 greater than 200 µM.

`COc1cc2c[n+](C)c3c(c2cc1OC)Cc1cc(OS(C)(=O)=O)c(OC)cc1-3` was tested, and the EC50 was greater than 57.5 µM and the IC50 was 10.5 µM.

For `O=C1NN(c2ccccc2)C(=O)C2C3c4ccccc4C(c4ccccc43)C12` (stereo not drawn), the EC50 was greater than 200 µM and the IC50 was greater than 200 µM.

For `CCN(CCCl)CCCCCNc1c2ccccc2nc2ccc(OC)cc12`, the outcome was “inactive”.

In the case of `COc1ccccc1/C=C1\Cc2ccccc2C1=O`, the EC50 is reported as greater than 20.9 µM and the IC50 is reported as greater than 20.9 µM.

With `CCc1cccc(C(C)C)c1NC(=O)/C(=N\NC(N)=O)C(C(=O)OC)c1cnc2ccccc2n1` (stereo not drawn) the outcome was “inactive”.

`CCOC(=O)c1sc(SSc2sc(C(=O)OCC)c(C)c2[N+](=O)[O-])c([N+](=O)[O-])c1C` gave an EC50 greater than 200 µM and an IC50 of 138 µM.

For `COc1c(C)cc(C(=O)c2cc(C)c(OC)c(Br)c2)cc1Br`, the EC50 was greater than 100 µM and the IC50 was 95.5 µM.

`N#Cc1nc(C#N)n(C(=O)c2ccccc2)c1NC(=O)c1ccccc1` showed an EC50 greater than 200 µM and an IC50 greater than 200 µM.

`NNC(=O)C1CCC(=O)N1S(=O)(=O)c1ccccc1` (stereo not drawn) was tested, and the outcome was “inactive”.

`Cc1ccc2[nH]c3c(c(=O)n(C)c(=O)n3C)c2c1` was tested, and the EC50 was greater than 200 µM and the IC50 was greater than 200 µM.

`Cn1cnc([N+](=O)[O-])c1Sc1nnnn1C` was tested, and the EC50 was greater than 1020 µM and the IC50 was 5.5 µM.

In the case of `C=CCP(=O)(c1ccccc1)c1ccccc1`, the EC50 is reported as 0.0631 µM and the IC50 is reported as greater than 200 µM.

With `O=S1(=O)c2ccccc2NC(c2ccc3ccccc3c2)CC1c1ccccc1F` (stereo not drawn) the EC50 was greater than 6.46 µM and the IC50 was greater than 6.46 µM.

`CC(C)S(=O)(=O)c1s[nH]c(=O)c1-c1ccccc1` was tested, and the EC50 was greater than 178 µM and the IC50 was greater than 178 µM.

With `CC(C)(C)c1cc(Cc2ccc(S(C)(=O)=O)cc2)c(O)c(C(C)(C)C)c1` the outcome was “inactive”.

Compound `CCCCOCn1c(=O)[nH]c(=O)c2cc(Br)ccc21` has an EC50 greater than 200 µM and an IC50 of 93.3 µM.

For `N#Cc1c(N)c(C(=O)O)nn(-c2cccc(C(F)(F)F)c2)c1=O`, the outcome was “inactive”.

`CCO/C(O)=c1/s/c(=C2/SC(=S)N(c3ccc(C)cc3)C2=O)n(-c2ccccc2)c1=N` showed an EC50 greater than 1.58 µM and an IC50 greater than 1.58 µM.

With `CCCNC1(C(N)=O)CCN(Cc2ccccc2)CC1` the EC50 was greater than 200 µM and the IC50 was greater than 200 µM.

`CC(=O)OC1CC2C3(C)CC4O[C@@](C)(O)CC(C)C4[C@@]3(C)CC[C@]23C[C@@]32CC[C@H](OC3OCC(O)C(O)C3O)C(C)(C)C12` (stereo partly drawn) was tested, and the EC50 was greater than 53.7 µM and the IC50 was 22.4 µM.

`Cc1nn(-c2ccccc2)c2c1S(=O)(=O)c1ccccc1-2` was tested, and the EC50 was greater than 112 µM and the IC50 was 69.2 µM.

In the case of `CC(C)C1COC(c2ccc3ccccc3c2-c2c(O[Si](C)(C)C(C)(C)C)ccc3ccccc23)=N1` (stereo not drawn), the EC50 is reported as greater than 7.59 µM and the IC50 is reported as greater than 7.59 µM.

`CC(C)(C)OC(=O)C1=C2C=C(O)C=CC2(C)N(Cc2ccccc2)C1=N` (stereo not drawn) gave an EC50 greater than 2 µM and an IC50 of 0.741 µM.

Work on `CC(=O)Oc1ccc2c(C)cc(=O)oc2c1` yielded an EC50 greater than 200 µM and an IC50 of 170 µM.

`CC1OS(=O)(=O)CS(=O)(=O)OC1C` (stereo not drawn) was tested, and the EC50 was greater than 1070 µM and the IC50 was 1020 µM.

With `COC(=O)c1ccccc1C1=C(O)C(=O)C(c2ccccc2C(=O)OC)=C(O)C1=O` the EC50 was greater than 63.1 µM and the IC50 was 6.76 µM.

With `O=C(CCc1ccc(O)cc1)c1c(O)cc(O)cc1OC1OC(CO)C(O)C(O)C1O` (stereo not drawn) the EC50 was greater than 200 µM and the IC50 was greater than 200 µM.

With `CC(=O)Nc1nc(N)nc(NC(C)=O)c1N=O` the EC50 was greater than 200 µM and the IC50 was 30.9 µM.

`CCCCCCC=C(c1cc(Cl)c(OC)c(C(=O)OC)c1)c1cc(Cl)c(OC)c(C(=O)OC)c1` showed an EC50 greater than 5.37 µM and an IC50 greater than 5.37 µM.

With `COc1ccc(/C=C2\CCC(C)C3C2=NN(c2ccccc2)C3c2ccc(OC)c(OC)c2)cc1OC` (stereo not drawn) the EC50 was greater than 200 µM and the IC50 was 5.01 µM.
